Reference: the supplement of paper PMC13380429

Experiments:
Conditions in all cases: 72 h
[1] = system: Calu-3; experiment: cell viability relative to DMSO; higher = less toxic
[2] = system: U2OS; experiment: as above
[3] = system: Caco-2; experiment: as above
[4] = system: Vero E6; experiment: as above
[5] = system: HepG2; experiment: as above
[6] = system: Calu-3; experiment: relative viability EC50 (midpoint between 100% and the lowest measured viability); higher = less toxic
[7] = system: U2OS; experiment: as above
[8] = system: Caco-2; experiment: as above
[9] = system: Vero E6; experiment: as above
[10] = system: HepG2; experiment: as above
[11] = system: Calu-3; experiment: drug sensitivity score (DSS) for viability; higher = more toxic; extreme values may be limits of the assay
[12] = system: U2OS; experiment: as above
[13] = system: Caco-2; experiment: as above
[14] = system: Vero E6; experiment: as above
[15] = system: HepG2; experiment: as above

Row | SMILES | cell viability ([1]; 1 nM) [%] | cell viability ([1]; 10 nM) [%] | cell viability ([1]; 100 nM) [%] | cell viability ([1]; 1000 nM) [%] | cell viability ([1]; 10000 nM) [%] | cell viability ([2]; 1 nM) [%] | cell viability ([2]; 10 nM) [%] | cell viability ([2]; 100 nM) [%] | cell viability ([2]; 1000 nM) [%] | cell viability ([2]; 10000 nM) [%] | cell viability ([3]; 1 nM) [%] | cell viability ([3]; 10 nM) [%] | cell viability ([3]; 100 nM) [%] | cell viability ([3]; 1000 nM) [%] | cell viability ([3]; 10000 nM) [%] | cell viability ([4]; 1 nM) [%] | cell viability ([4]; 10 nM) [%] | cell viability ([4]; 100 nM) [%] | cell viability ([4]; 1000 nM) [%] | cell viability ([4]; 10000 nM) [%] | cell viability ([5]; 1 nM) [%] | cell viability ([5]; 10 nM) [%] | cell viability ([5]; 100 nM) [%] | cell viability ([5]; 1000 nM) [%] | cell viability ([5]; 10000 nM) [%] | relative viability EC50 [6] [µM] | relative viability EC50 [7] [µM] | relative viability EC50 [8] [µM] | relative viability EC50 [9] [µM] | relative viability EC50 [10] [µM] | drug sensitivity score [11] | drug sensitivity score [12] | drug sensitivity score [13] | drug sensitivity score [14] | drug sensitivity score [15]
1 | CNCCc1ccc(O)c(O)c1 [deoxyepinephrine] | 94.5 | 104 | 95.8 | 91.6 | 98.1 | 95 | 97 | 94.3 | 101 | 95.5 | 95.5 | 95.8 | 106 | 102 | 89.6 | 107 | 99.6 | 100 | 101 | 103 | 97.5 | 97.2 | 108 | 91.8 | 96.7 | > 10 | > 10 | > 10 | > 10 | > 10 | 0 | 0 | 0 | 0 | 0
2 | CNCCCN1c2ccccc2CCc2ccccc21 [desipramine] | 104 | 101 | 104 | 109 | 96.2 | 104 | 102 | 104 | 98.1 | 97.1 | 98.9 | 111 | 102 | 94.3 | 90.6 | 107 | 103 | 97 | 102 | 99.9 | 119 | 114 | 105 | 113 | 89 | > 10 | > 10 | > 10 | > 10 | > 10 | 0 | 0 | 0 | 0 | 0
3 | C[C@]12CC[C@H]3[C@@H](CCC4=CC(=O)CC[C@@]43C)[C@@H]1CC[C@@H]2C(=O)CO [desoxycortone] | 98.5 | 95.1 | 91.5 | 105 | 95.8 | 103 | 99.2 | 97.1 | 97.6 | 95.4 | 100 | 101 | 102 | 97 | 87.4 | 101 | 99.2 | 93.6 | 95.8 | 101 | 101 | 95.8 | 97 | 87.1 | 104 | > 10 | > 10 | > 10 | > 10 | > 10 | 0 | 0 | 0.2 | 0 | 0
4 | c1ccc2c(c1)CN1CCCC1=N2 [desoxypeganine] | 95.1 | 111 | 99.6 | 89.2 | 107 | 98.7 | 101 | 93 | 94.5 | 99.3 | 97.6 | 113 | 105 | 94.7 | 97.9 | 98.4 | 96.5 | 105 | 98 | 95.2 | 89.7 | 75.1 | 91.6 | 91.1 | 96.8 | > 10 | > 10 | > 10 | > 10 | > 10 | 0 | 0 | 0 | 0 | 0
5 | c1ccc2c(c1)sc1ccccc12 [dibenzothiophene] | 99.4 | 103 | 92.1 | 96.1 | 101 | 105 | 101 | 104 | 96.7 | 104 | 101 | 98.7 | 99.9 | 91.1 | 99.8 | 100 | 96.6 | 99 | 98.5 | 98.8 | 102 | 96.8 | 104 | 106 | 101 | > 10 | > 10 | > 10 | > 10 | > 10 | 0 | 0 | 0 | 0 | 0
6 | CN1CCN(c2cc3c(cc2F)c(=O)c(C(=O)O)cn3-c2ccc(F)cc2)CC1 [difloxacin] | 105 | 90.1 | 95.2 | 98.6 | 108 | 92 | 95.4 | 98.9 | 99.1 | 104 | 92.5 | 95.1 | 102 | 94.7 | 91.1 | 109 | 101 | 96.7 | 106 | 99.1 | 93.6 | 110 | 105 | 103 | 93.7 | > 10 | > 10 | > 10 | > 10 | > 10 | 0 | 0 | 0 | 0 | 0
